Measurements from publication PMC6127092, “Polymeric nanocapsules embedded with ultra-small silver nanoclusters for synergistic pharmacology and improved oral delivery of Docetaxel” (Scientific Reports, 2018).

Legend:
[1] = system: breast cancer (MDA-MB-231) cell line; assay: Cytotoxic synergism study, MTT assay; details: MDA-MB-231, MTT, 24 h
Protocol: The cells were seeded in 96-well plate having 6000 cells/well in fetal bovine serum supplemented Dulbecco’s Modified Eagles Medium (DMEM/FBS) solution. […] Untreated cells with 100% viability were taken as control and the cells without addition of MTT were used as blank to calibrate the instrument. IC50 values for each formulation was calculated using Graphpad Prism 6.02 software[19].

Swiss albino mice [2] = assay: Acute oral toxicity (OECD 425), observation; details: 10 mg/kg, 14 days
Protocol: (§1) Female Swiss albino mice weighing 32 ± 5 g, were divided into 4 groups (n = 5) and were kept to free access of food and water at controlled environment. […] The dose (10 mg/kg) was administered orally through gavage. […] After 14 days, the blood was withdrawn for serum biochemistry analysis and mice were sacrificed for tissue histology studies[49].

[3] = rabbit, in vivo, cited from earlier work
[4] = Oral bioavailability and pharmacokinetics; format: in vivo, rabbits; details: rabbit
Protocol: All the animal studies were conducted in compliance to the approved protocol of Bio-Ethical Committee of Quaid-i-Azam University Islamabad, Pakistan (Protocol No. BEC-FBS-QAU-20). Oral bioavailability studies of NCs were conducted in rabbits. The rabbits were divided into 3 groups (n=5) and kept in the animal house with free access to food and water. […] The samples (10mg/kg) were orally administered through gavage needle. Blood samples were withdrawn from ear marginal vein of each rabbit at predefined time interval using 1 ml sterile syringe each time. The plasma was separated from blood samples and stored at -20 °C till further used for analysis.^7,8 The drug was extracted from plasma samples and was analyzed using HPLC method described earlier.

[5] = Biocompatibility, trypan blue assay; format: cell-based; details: fresh human macrophages isolated from blood
Protocol: The biocompatibility of the NCs and DTX-Ag-NCPs was assessed against the fresh human macrophages. The macrophages were isolated from fresh human blood using Ficoll-Gastrografin gradient method.^6 Macrophages were suspended in RPMI media and incubated in CO2 incubator.

Swiss albino mice [6] = details: mouse, in vivo
Protocol: After 14 days, the complete blood count (CBC) was performed on blood and plasma was carefully collected and LFTs, RFTs, glucose, total protein and cholesterol were analyzed.

Swiss albino mice [7] = details: mouse, in vivo, po, 10 mg/kg
Protocol: as §1

[8] = In vitro DTX release and release model fitting; format: physicochemical
From the text: Error bar represents Mean ± S.D. of three experiments.
To further probe into the release mechanism, different mathematical models were applied to the dissolution data.

[9] = model fitted to dissolution data

## CC(=O)O[C@@]12CO[C@@H]1C[C@H](O)[C@@]1(C)C(=O)[C@H](O)C3=C(C)[C@@H](OC(=O)[C@H](O)[C@@H](NC(=O)OC(C)(C)C)c4ccccc4)C[C@@](O)([C@@H](OC(=O)c4ccccc4)[C@H]21)C3(C)C [DTX, Docetaxel]
[1]
  IC50: 14.32 µg/mL
Swiss albino mice [2]
  Mortality and change in body weights: No mortality and significant change in body weights
[3]; iv
  Minimum toxic concentration: 2700 ng/mL
[3]
  Minimum effective concentration: 35 ng/mL
[4]; plasma, 10 mg/kg
  Cmax: 41.8 ng/mL
  Tmax: 5 h
[4]; plasma, 10 mg/kg, read-out: AUC0–24
  AUC(0-t): 441 ng·h/mL
[4]; plasma, 10 mg/kg, read-out: MRT0-inf_obs
  MRT inf: 26.2 h
[4]; 10 mg/kg
  AUMC0-inf_obs: 19100.51 ng/ml*h^2
  Cl/F_obs: 0.014 (mg)/(ng/ml)/h
[4]; 10 mg/kg, plasma
  t1/2: 18.039 h
[4]; MEC 35 ng/mL
  Time plasma level remained above minimum effective concentration / within therapeutic window: 3 h
[4]; plasma, po, 10 mg/kg
  half-life: 18 h
[4]; relative to DTX control
  F: 1
[5]
  viability at 24 h, 50 µg/ml: ~65%
Swiss albino mice [6]
  Hb: 13.20 ± 6.37
  MCH: 15.54 ± 4.35
  MCV: 57.57 ± 5.52
  MPV: 7.11 ± 4.91
  PCV: 54.37 ± 11.93
  Platelets: 632 ± 87.57
  RBC: 6.86 ± 4.91
  RDW %: 16.92 ± 6.63%
  Serum glutamic pyruvic transaminase (SGPT): highest level
  WBC: 12.45 ± 7.63
Swiss albino mice [7]
  Visible changes in skin, fur or behavioral pattern: no visible changes
[8]; 24 h, phosphate buffer, 37 °C
  Cumulative DTX release: about 53%
[8]; [9]
  Higuchi KH: 10.98
  Hixon-Crowell KHC: 0.01
  Korsmeyer-Peppas N (release exponent): 0.56
  Zero Order Ko: 3.06
